The results in this text go back to patent US20230227427A1, “IL-17A MODULATORS” (SANOFI, priority 2010, published 2023).

One assay addresses T1, human recombinant IL-17A (Homo sapiens, UniProt Q16552).
T1 construct: purchased R&D Systems 7955-IL/CF
T1 sequence (Q16552 24-155): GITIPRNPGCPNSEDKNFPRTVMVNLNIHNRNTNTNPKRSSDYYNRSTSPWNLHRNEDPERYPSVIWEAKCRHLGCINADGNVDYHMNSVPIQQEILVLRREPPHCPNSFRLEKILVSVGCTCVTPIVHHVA
The experiment in a line: IL-17A AlphaLISA assay (block binding of IL-17A to its receptor IL-17RA). The note with it: compounds pre-incubated with the IL-17A for 30 min (indicated by * in Table A); read-out: AlphaLISA pIC50 (converted). How it is done: The ability of the compounds to block binding of IL-17A to its receptor, IL-17RA, was analysed in a competition assay using AlphaLISA technology (Perkin Elmer). The assay is a bead based AlphaLISA where the IL-17RA is captured on the acceptor bead via an Fc tag and IL-17A is captured on the streptavidin donor bead via a biotinylated anti-IL17A antibody.
Assay buffer was prepared by adding 0.05% Tween-20 (v/v) and 0.1% BSA to Phosphate Buffered Saline (PBS). The assay was carried out in 384-well white low volume plates (Corning 4512). 10 µL of a 7.5 nM stock of human recombinant IL-17A (R&D Systems 7955-IL/CF) diluted in assay buffer was dispensed into the assay plate and compounds or DMSO vehicle control were added in a volume of 75 nL using a D300 dispenser (Hewlett Packard). The compounds were pre-incubated with the IL-17A for 24 h at room temperature (or for 30 min, where indicated by * in Table A below) prior to addition of 5 μL of a 5 nM stock of human recombinant IL-17RA/Fc chimera (R&D Systems 177-IR-100) diluted in assay buffer. The IL-17A was incubated with the receptor for a further 90 minutes at room temperature before addition of 5 μL of a mixture of anti-human Fc IgG acceptor beads (75 μg/mL, Perkin Elmer AL103C) and anti-IL-17A biotin conjugated antibody (5 nM, Enzo Life Sciences, ENZ-ABS278-0100) in assay buffer. After a further 30 min incubation at room temperature, 5 μL of streptavidin donor beads ([…], Perkin Elmer 6760002S) were added and the plate was incubated for 3 h in the dark.
The luminescence signal was measured using an Enspire plate reader (Perkin Elmer) with excitation at 680 nm and emission at 615 nm. Data were analysed using GraphPad Prism and fitted to a 4-parameter logistic equation. The IC50 values were calculated using the DMSO vehicle as the negative control and a high concentration (6 μM) of a reference IL-17A inhibitor as the positive control.
Activity of the Example compounds is reported as a PIC50 value in Table A.
In general terms: Alpha assays give light when donor and acceptor beads are brought close together.
As for `CCn1nccc1C(=O)N[C@H](C(=O)Nc1ccc(-c2c(C)cnn2C)nc1)[C@H]1CC[C@H](C)CC1` [Example 154, N—((S)-2-((6-(1,4-dimethyl-1H-pyrazol-5-yl)pyridin-3-yl)amino)-1-((1r,4S)-4-methylcyclohexyl)-2-oxoethyl)-1-ethyl-1H-pyrazole-5-carboxamide], the IC50 was 251 nM.

As for `Cc1n[nH]c(C)c1-c1ccc(NC(=O)[C@@H](NC(=O)c2ccnn2C)[C@H]2CC[C@H](C)CC2)cn1` [Example 211, N—((S)-2-((6-(3,5-dimethyl-1H-pyrazol-4-yl)pyridin-3-yl)amino)-1-((1r,4S)-4-methylcyclohexyl)-2-oxoethyl)-1-methyl-1H-pyrazole-5-carboxamide], the IC50 was 158 nM.

On to `CCc1nocc1C(=O)N[C@H](C(=O)Nc1ccc(-c2c(C)nnn2C)cn1)[C@H]1CC[C@H](C)CC1` [Example 188, N—((S)-2-((5-(1,4-dimethyl-1H-1,2,3-triazol-5-yl)pyridin-2-yl)amino)-1-((1r,4S)-4-methylcyclohexyl)-2-oxoethyl)-3-ethylisoxazole-4-carboxamide], for which the IC50 was 100 nM.

As to `Cc1nocc1C(=O)N[C@H](C(=O)Nc1ccc(-c2c(C)nnn2C)cn1)[C@H]1CC[C@H](C)CC1` [Example 160, N—((S)-2-((5-(1,4-dimethyl-1H-1,2,3-triazol-5-yl)pyridin-2-yl)amino)-1-((1r,4S)-4-methylcyclohexyl)-2-oxoethyl)-3-methylisoxazole-4-carboxamide], the IC50 was 200 nM.

Turning to `Cn1nccc1C(=O)N[C@H](C(=O)Nc1ccc(-c2c(C3CC3)nnn2C)cn1)C1CCCCCC1` [Example 173, (S)—N-(1-cycloheptyl-2-((5-(4-cyclopropyl-1-methyl-1H-1,2,3-triazol-5-yl)pyridin-2-yl)amino)-2-oxoethyl)-1-methyl-1H-pyrazole-5-carboxamide], the IC50 is 158 nM.

For the molecule `Cc1cnn(C)c1-c1ncc(NC(=O)[C@@H](NC(=O)c2ccnn2C)[C@H]2CC[C@H](C)CC2)cc1F` [Example 179, N—((S)-2-((6-(1,4-dimethyl-1H-pyrazol-5-yl)-5-fluoropyridin-3-yl)amino)-1-((1r,4S)-4-methylcyclohexyl)-2-oxoethyl)-1-methyl-1H-pyrazole-5-carboxamide], the IC50 was 501 nM.

On to `Cc1noc(C)c1-c1ccc(NC(=O)[C@@H](NC(=O)c2ccnn2C)C2CCCCCC2)cn1` [Example 172, (S)—N-(1-cycloheptyl-2-((6-(3,5-dimethylisoxazol-4-yl)pyridin-3-yl)amino)-2-oxoethyl)-1-methyl-1H-pyrazole-5-carboxamide], for which the IC50 was 200 nM.

Consider `CCc1nocc1C(=O)N[C@H](C(=O)Nc1ccc(-c2c(C)cnn2C)cn1)[C@H]1CC[C@H](C)CC1` [Example 127, N—((S)-2-((5-(1,4-Dimethyl-1H-pyrazol-5-yl)pyridin-2-yl)amino)-1-((1r,4S)-4-methylcyclohexyl)-2-oxoethyl)-3-ethylisoxazole-4-carboxamide], for which the IC50 was 39.8 nM.

Turning to `Cc1nnn(C2CC2)c1-c1ccc(NC(=O)[C@@H](NC(=O)c2ccnn2C)C2CCCCCC2)nc1` [Example 161, (S)—N-(1-cycloheptyl-2-((5-(1-cyclopropyl-4-methyl-1H-1,2,3-triazol-5-yl)pyridin-2-yl)amino)-2-oxoethyl)-1-methyl-1H-pyrazole-5-carboxamide], the IC50 is 200 nM.

Turning to `CCn1nccc1C(=O)NC(C(=O)Nc1ccc(-c2c(C)cnn2C)cn1)[C@H]1CC[C@H](C(F)(F)F)CC1` (some centres unmarked) [Example 186, N-(2-((5-(1,4-dimethyl-1H-pyrazol-5-yl)pyridin-2-yl)amino)-2-oxo-1-((1r,4r)-4-(trifluoromethyl)cyclohexyl)ethyl)-1-ethyl-1H-pyrazole-5-carboxamide], the IC50 is 398 nM.

With `Cc1cncc(C)c1-c1ccc(NC(=O)[C@@H](NC(=O)c2ccnn2C)C2CCC(C)(C)CC2)cc1` (single isomer, unassigned) [Example 100], the IC50 was 200 nM.

The same assay, now with this note: compounds pre-incubated with the IL-17A for 24 h at room temperature; read-out: AlphaLISA pIC50 (converted).
In the case of `COc1cncc(F)c1-c1ccc(NC(=O)[C@@H](NC(=O)c2ccnn2C)C(c2ccccc2)c2ccccc2)cc1F` [Example 18, N-((2S)-1-((3-fluoro-4-(3-fluoro-5-methoxypyridin-4-yl)phenyl)amino)-1-oxo-3,3-diphenylpropan-2-yl)-1-methyl-1H-pyrazole-5-carboxamide], the IC50 was 31.6 nM.

On to `Cc1c[n+]([O-])cc(C)c1-c1ccc(NC(=O)[C@@H](NC(=O)c2ccnn2C)C(c2ccccc2)c2ccccc2)cc1` [Example 26, (S)-3,5-dimethyl-4-(4-(2-(1-methyl-1H-pyrazole-5-carboxamido)-3,3-diphenylpropanamido)phenyl)pyridine 1-oxide], for which the IC50 was 7.94 nM.

In the case of `COc1cnccc1-c1c(F)cc(NC(=O)[C@@H](NC(=O)c2ccnn2C)C(c2ccccc2)c2ccccc2)cc1F` [Example 30, (S)—N-(1-((3,5-difluoro-4-(3-methoxypyridin-4-yl)phenyl)amino)-1-oxo-3,3-diphenylpropan-2-yl)-1-methyl-1H-pyrazole-5-carboxamide], the IC50 was 39.8 nM.

For the molecule `COc1cnccc1-c1ccc(NC(=O)C(NC(=O)c2ccnn2C)C2c3ccccc3-c3ccccc32)cc1` (centres unmarked) [Example 82, N-(1-(9H-fluoren-9-yl)-2-((4-(3-methoxypyridin-4-yl)phenyl)amino)-2-oxoethyl)-1-methyl-1H-pyrazole-5-carboxamide], the IC50 was 25.1 nM.

`Cc1[nH]c(=O)ccc1-c1ccc(NC(=O)[C@@H](NC(=O)c2ccnn2C)C(c2ccccc2)c2ccccc2)cc1` [Example 11, (S)-1-methyl-N-(1-((4-(2-methyl-6-oxo-1,6-dihydropyridin-3-yl)phenyl)amino)-1-oxo-3,3-diphenylpropan-2-yl)-1H-pyrazole-5-carboxamide]: the IC50 is 15.8 nM.

As to `COc1cnccc1-c1ccc(NC(=O)[C@@H](NC(=O)c2ccnn2C)C(c2ccccc2)c2ccccc2)cc1OC` [Example 47, (S)—N-(1-((3-methoxy-4-(3-methoxypyridin-4-yl)phenyl)amino)-1-oxo-3,3-diphenylpropan-2-yl)-1-methyl-1H-pyrazole-5-carboxamide], the IC50 was 25.1 nM.

`Cn1nccc1C(=O)N[C@H](C(=O)Nc1ccc(-c2ncnc3c2CCN3)cc1)C(c1ccccc1)c1ccccc1` [Example 40, (S)—N-(1-((4-(6,7-dihydro-5H-pyrrolo[2,3-d]pyrimidin-4-yl)phenyl)amino)-1-oxo-3,3-diphenylpropan-2-yl)-1-methyl-1H-pyrazole-5-carboxamide]: the IC50 is 63.1 nM.

Regarding `Cc1noc(C)c1-c1ccc(NC(=O)[C@@H](NC(=O)c2ccnn2C)C(c2ccccc2)c2ccccc2)cc1F` [Example 60, (S)—N-(1-((4-(3,5-dimethylisoxazol-4-yl)-3-fluorophenyl)amino)-1-oxo-3,3-diphenylpropan-2-yl)-1-methyl-1H-pyrazole-5-carboxamide], the IC50 was 39.8 nM.

As to `Cn1nccc1C(=O)N[C@H](C(=O)Nc1ccc(-c2ccc(=O)[nH]c2)cc1)C(c1ccccc1)c1ccccc1` [Example 49, (S)-1-methyl-N-(1-oxo-1-((4-(6-oxo-1,6-dihydropyridin-3-yl)phenyl)amino)-3,3-diphenylpropan-2-yl)-1H-pyrazole-5-carboxamide], the IC50 was 100 nM.
